From the NIST ThermoML archive (doi:10.1016/j.jct.2015.10.004) come the findings set out here.

Several values for one entry are separate records, joined by “and”; a condition that tells them apart may be missing. Identical values can stand only once. Numbers after ± are expanded uncertainties.

The nature of the data set: mn = molality of the nth substance listed, in mol/kg. The following applies: 101 kPa, Liquid, Alternating current cell with electrodes.

Turning to `C[C@H](N)C(=O)N[C@@H](CCC(N)=O)C(=O)O` [L-alanyl-L-glutamine] + O, the electrical conductivity was determined as 0.0034 ± 0.0004 S/m (293.15 K, m1 = 0.05); 0.00555 ± 0.00046 S/m (293.15 K, m1 = 0.1); 0.00766 ± 0.00052 S/m (293.15 K, m1 = 0.15); 0.0107 ± 0.00072 S/m (293.15 K, m1 = 0.2); 0.00364 ± 0.00043 S/m (298.15 K, m1 = 0.05); 0.00599 ± 0.00066 S/m (298.15 K, m1 = 0.1). Moreover, the electrical conductivity was 0.0084 ± 0.0007 S/m (298.15 K, m1 = 0.15); 0.0115 ± 0.00079 S/m (298.15 K, m1 = 0.2); 0.00391 ± 0.00049 S/m (303.15 K, m1 = 0.05); 0.00648 ± 0.0006 S/m (303.15 K, m1 = 0.1); 0.009 ± 0.00071 S/m (303.15 K, m1 = 0.15); 0.0124 ± 0.00086 S/m (303.15 K, m1 = 0.2). Besides, the electrical conductivity turned out to be 0.00427 ± 0.00054 S/m (308.15 K, m1 = 0.05); 0.00707 ± 0.00069 S/m (308.15 K, m1 = 0.1); 0.00985 ± 0.00079 S/m (308.15 K, m1 = 0.15); 0.0138 ± 0.00093 S/m (308.15 K, m1 = 0.2); 0.00463 ± 0.0006 S/m (313.15 K, m1 = 0.05); 0.00792 ± 0.00078 S/m (313.15 K, m1 = 0.1). Also, the electrical conductivity (313.15 K, m1 = 0.15) was determined as 0.0112 ± 0.00088 S/m and the electrical conductivity (313.15 K, m1 = 0.2) turned out to be 0.0153 ± 0.001 S/m.
As to `CC(C)C[C@H](NC(=O)CN)C(=O)O` [glycyl-L-leucine] + O, the electrical conductivity (293.15 K, m1 = 0.05) worked out at 0.00321 ± 0.0004 S/m; the electrical conductivity (293.15 K, m1 = 0.1) stood at 0.00533 ± 0.00046 S/m; the electrical conductivity (293.15 K, m1 = 0.15) is 0.0074 ± 0.00054 S/m; the electrical conductivity (293.15 K, m1 = 0.2) is 0.0104 ± 0.0007 S/m; the electrical conductivity (298.15 K, m1 = 0.05) was found to be 0.00345 ± 0.00044 S/m; the electrical conductivity (298.15 K, m1 = 0.1) came out at 0.0058 ± 0.00052 S/m. The electrical conductivity is 0.00809 ± 0.0006 S/m (298.15 K, m1 = 0.15); 0.0113 ± 0.00075 S/m (298.15 K, m1 = 0.2); 0.00373 S/m and 0.00372 S/m (303.15 K, m1 = 0.05); 0.00634 ± 0.00056 S/m (303.15 K, m1 = 0.1); 0.00889 ± 0.00066 S/m (303.15 K, m1 = 0.15); 0.0124 ± 0.00084 S/m (303.15 K, m1 = 0.2). Besides, the electrical conductivity reads like this: (308.15 K, m1 = 0.05) 0.00406 ± 0.00053 S/m; (308.15 K, m1 = 0.1) 0.00703 ± 0.00063 S/m; (308.15 K, m1 = 0.15) 0.00987 ± 0.00073 S/m; (308.15 K, m1 = 0.2) 0.0137 ± 0.00092 S/m; (313.15 K, m1 = 0.05) 0.00455 ± 0.00057 S/m; (313.15 K, m1 = 0.1) 0.00781 ± 0.0007 S/m. In addition, the electrical conductivity reads like this: (313.15 K, m1 = 0.15) 0.011 ± 0.00081 S/m; (313.15 K, m1 = 0.2) 0.0152 ± 0.001 S/m.
As to `CC(C)[C@H](NC(=O)CN)C(=O)O` [glycyl-L-valine] + O, the electrical conductivity amounted to 0.00323 ± 0.00039 S/m (293.15 K, m1 = 0.05); 0.00535 ± 0.00047 S/m (293.15 K, m1 = 0.1); 0.00742 ± 0.00054 S/m (293.15 K, m1 = 0.15); 0.0104 ± 0.00071 S/m (293.15 K, m1 = 0.2); 0.00347 ± 0.00043 S/m (298.15 K, m1 = 0.05); 0.00582 ± 0.00052 S/m (298.15 K, m1 = 0.1). Moreover, the electrical conductivity came out at 0.00811 ± 0.00058 S/m (298.15 K, m1 = 0.15); 0.0114 ± 0.00077 S/m (298.15 K, m1 = 0.2); 0.00374 ± 0.00047 S/m (303.15 K, m1 = 0.05); 0.00636 ± 0.00056 S/m (303.15 K, m1 = 0.1); 0.00891 ± 0.00067 S/m (303.15 K, m1 = 0.15); 0.0124 ± 0.00084 S/m (303.15 K, m1 = 0.2). The electrical conductivity (308.15 K, m1 = 0.05) was found to be 0.00407 ± 0.00052 S/m; the electrical conductivity (308.15 K, m1 = 0.1) stood at 0.00705 ± 0.00063 S/m; the electrical conductivity (308.15 K, m1 = 0.15) is 0.00989 ± 0.00074 S/m; the electrical conductivity (308.15 K, m1 = 0.2) is 0.0137 ± 0.00093 S/m; the electrical conductivity (313.15 K, m1 = 0.05) was found to be 0.00456 ± 0.00058 S/m; the electrical conductivity (313.15 K, m1 = 0.1) stood at 0.00783 ± 0.00069 S/m. The electrical conductivity stood at 0.011 ± 0.00081 S/m (313.15 K, m1 = 0.15) and 0.0152 ± 0.001 S/m (313.15 K, m1 = 0.2).
Turning to `NCC(=O)N[C@@H](CCC(N)=O)C(=O)O` [glycyl-l-glutamine] + O, the electrical conductivity (293.15 K, m1 = 0.05) came to 0.00342 ± 0.00042 S/m; the electrical conductivity (293.15 K, m1 = 0.1) is 0.00556 ± 0.00048 S/m; the electrical conductivity (293.15 K, m1 = 0.15) was determined as 0.00768 ± 0.00049 S/m; the electrical conductivity (293.15 K, m1 = 0.2) came out at 0.0107 ± 0.00072 S/m; the electrical conductivity (298.15 K, m1 = 0.05) was found to be 0.00366 ± 0.00045 S/m; the electrical conductivity (298.15 K, m1 = 0.1) came to 0.006 ± 0.00053 S/m. The electrical conductivity (298.15 K, m1 = 0.15) came out at 0.00832 ± 0.00057 S/m; the electrical conductivity (298.15 K, m1 = 0.2) was found to be 0.0116 ± 0.00078 S/m; the electrical conductivity (303.15 K, m1 = 0.05) turned out to be 0.00392 ± 0.00051 S/m; the electrical conductivity (303.15 K, m1 = 0.1) came out at 0.00649 ± 0.0006 S/m; the electrical conductivity (303.15 K, m1 = 0.15) is 0.00902 ± 0.00065 S/m; the electrical conductivity (303.15 K, m1 = 0.2) was 0.0125 ± 0.00084 S/m. Also, the electrical conductivity runs as follows: (308.15 K, m1 = 0.05) 0.00428 ± 0.00056 S/m; (308.15 K, m1 = 0.1) 0.00708 ± 0.00063 S/m; (308.15 K, m1 = 0.15) 0.00999 ± 0.00068 S/m; (308.15 K, m1 = 0.2) 0.0139 ± 0.00092 S/m; (313.15 K, m1 = 0.05) 0.00464 ± 0.0006 S/m; (313.15 K, m1 = 0.1) 0.00793 S/m and 0.00773 S/m. In addition, the electrical conductivity (313.15 K, m1 = 0.15) was 0.0108 S/m and 0.0112 S/m; the electrical conductivity (313.15 K, m1 = 0.2) is 0.0148 S/m and 0.0158 S/m.
Take `NCC(=O)NCC(=O)O` [glycylglycine] + O: the electrical conductivity reads like this: (293.15 K, m1 = 0.05) 0.00328 ± 0.00046 S/m; (293.15 K, m1 = 0.1) 0.00543 ± 0.00048 S/m; (293.15 K, m1 = 0.15) 0.00745 ± 0.00053 S/m; (293.15 K, m1 = 0.2) 0.0106 ± 0.00072 S/m; (298.15 K, m1 = 0.05) 0.00355 ± 0.00048 S/m; (298.15 K, m1 = 0.1) 0.00593 ± 0.00053 S/m. Besides, the electrical conductivity was determined as 0.00818 ± 0.0006 S/m (298.15 K, m1 = 0.15); 0.0115 ± 0.00079 S/m (298.15 K, m1 = 0.2); 0.00385 ± 0.00052 S/m (303.15 K, m1 = 0.05); 0.00652 ± 0.00059 S/m (303.15 K, m1 = 0.1); 0.00904 ± 0.00067 S/m (303.15 K, m1 = 0.15); 0.0125 ± 0.00083 S/m (303.15 K, m1 = 0.2). The electrical conductivity by setting is: (308.15 K, m1 = 0.05) 0.00429 ± 0.00058 S/m; (308.15 K, m1 = 0.1) 0.00724 ± 0.00065 S/m; (308.15 K, m1 = 0.15) 0.0101 S/m; (308.15 K, m1 = 0.2) 0.014 ± 0.00095 S/m; (313.15 K, m1 = 0.05) 0.00474 ± 0.00083 S/m; (313.15 K, m1 = 0.1) 0.00805 ± 0.00071 S/m. Further, the electrical conductivity (313.15 K, m1 = 0.15) turned out to be 0.0113 ± 0.00082 S/m and the electrical conductivity (313.15 K, m1 = 0.2) was found to be 0.0155 ± 0.001 S/m.
